The source made the active and inactive calls.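 The calls were made as follows: active = compounds giving half or more protection of infected cells from virus-caused growth loss, again on retest; inactive = the rest.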 Where a SMILES comes first, the peptide text is derived from it. Bridges are numbered along the chain shown (N, C = ends). Roman numbers before positions name the chains, in order. [ ]: non-standard residue; d: D form. The star is where a group is joined. Arg(NO2) = N=C(NCCC[CH](N)C(=O)O)N[N+](=O)[O-]; Cbz = O=C(OCc1ccccc1)*
System: CEM cells HIV-1 protection, formazan growth assay
Experiment: NCI AIDS Antiviral Assay
Settings: for IC50: measured here: growth of uninfected CEM cells
How it was run: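 CEM (human) cells, HIV-1 infected vs uninfected, 5-point dosing, formazan growth read-out. Retest threshold 50% protection.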

| Structure (SMILES) | EC50 [µM] | IC50 [µM] | outcome |
| --- | --- | --- | --- |
| O=[N+]([O-])C[C@@]12O[C@]3(O)C4C5CC(C6C5C3C61)C42 (stereo partly specified) | > 200 | > 200 |  |
| O=C(Cc1ccccc1C(=O)O)c1ccccc1 | > 200 | > 200 |  |
| CC(C)=CCCc1c(C)ccc2c1C(=O)C(=O)C(C(C)C)=C2 | > 60.3 | 4.47 |  |
| CC(=O)OCc1cn(S(=O)(=O)c2ccc(C)cc2)cn1 | > 200 | 24 |  |
| CCOc1cnn(-c2ccccc2)c(=O)c1Cl | > 1000 | 437 |  |
| CCN1C(Cl)=NS(=O)(=O)c2ccccc21 | > 200 | 91.2 |  |
| CC[C@H](C)N(CCN)C(=O)c1cc2ccccc2c(-c2ccccc2Cl)n1 |  |  | inactive |
| CCC1([N+](=O)[O-])COP(N)(=O)OC1 (stereo unspecified) | > 427 | 31.6 |  |
| COc1ccccc1/C=C(\NC(=O)c1ccccc1)c1nc2ccccc2[nH]1 | > 97.7 | 47.9 |  |
| O=C(/C=C/c1ccccc1)CCC1C(=O)NC(=O)NC1=O | > 66.1 | > 66.1 |  |
| Cc1cnc2sn(-c3ccc(Oc4ccccc4)cc3)c(=O)c2c1 | > 200 | 10 |  |
| COc1cc(C2C3=C(COC3=O)Oc3cc4c(cc32)OCO4)cc(OC)c1OC(C)=O (stereo unspecified) | > 0.2 | 0.0324 |  |
| CC(CC12CCC3(OO1)C(C)(C)CCCC3(C)O2)OC(=O)c1ccccc1 (stereo unspecified) | > 200 | 18.2 |  |
| O=[N+]([O-])c1nccn1CCCN=c1c2ccccc2n(O)c2ccccc12 | > 200 | 46.8 |  |
| Cn1c2c(c3ccccc31)CC(=O)N1CCCCC1C21OCCO1 (stereo unspecified) | > 100 | > 100 |  |
| COC1=C(C(=O)OC(C)(C)C)C23CCCCCCCCCCC2(C(C(=O)OC(C)(C)C)=C(OC)C3C(=O)OC(C)(C)C)C1C(=O)OC(C)(C)C (stereo unspecified) | > 25.1 | 23.4 |  |
| C/C(CCn1[nH]c(=O)ccc1=O)=N\NC(=O)C(N)=O | > 676 | > 676 |  |
| Nc1nc[n+](Cc2ccccc2CCO)c2nc[nH]c12 | > 37.2 | > 37.2 |  |
| CCC(=O)NC(Nc1cccc(F)c1)(C(F)(F)F)C(F)(F)F | > 200 | > 200 |  |
| N[C@@H]1c2c(Br)sc(N3CCOCC3)c2C(=O)[C@@H]1O | > 200 | 105 |  |
| CSc1nc2nccnc2c(=O)[nH]1 | > 1290 | > 1290 |  |
| O=S(=O)(Nc1nc2ccccc2nc1Nc1cccc2ccccc12)c1ccccc1 | > 200 | 15.8 |  |

| Structure (SMILES) | EC50 [µM] | IC50 [µM] | outcome |
| --- | --- | --- | --- |
| Nc1ccc([N+](=O)[O-])c(S(=O)(=O)O)c1 | > 1150 | > 1150 |  |
| COS(=O)(=O)OC1(SC)C=C(c2ccccc2)SS1 (stereo unspecified) | > 200 | 107 |  |
| O=C1C(Br)=C(c2ccccc2)C(c2ccccc2)=C1c1ccccc1 |  |  | inactive |
| CN(C)Cc1cc(N=Nc2ccccc2Cl)cc(CN(C)C)c1O | > 200 | 93.3 |  |
| O=C(O)C[C@@H]1C(=O)OC2C(COC(=O)c3cc(O)c(O)c(O)c3)OC(OC(=O)c3cc(O)c(O)c(O)c3)C(OC(=O)c3cc(O)c(O)c4c3C1[C@H](O)C(=O)O4)C2OC(=O)c1cc(O)c(O)c(O)c1 (stereo partly specified) | 1.48 | 12.9 |  |
| CN1C2CC(=O)CC1[C@@H]1OC(c3ccccc3)O[C@H]21 (stereo partly specified) | > 200 | > 200 |  |
| C[S+](C)c1ccc(Cl)cc1 | > 871 | 69.2 |  |
| CN1CCN(CCSc2nccc(-c3cc4ccccc4s3)n2)CC1 | > 126 | 31.6 |  |
| COC(OC)C(O)C1OC=CC1n1cnc2c(N)ncnc21 (stereo unspecified) | > 200 | > 200 |  |
| CCN(CC)C(=S)SS(=O)(=O)c1ccc(F)cc1 | > 200 | 18.6 |  |
| CCOC(=O)C1(C/C=C/CBr)CCc2ccccc2C1=O (stereo unspecified) | > 200 | 2.14 |  |
| CCOC(=O)C1=C(SC)SC(C(=O)OCC)C2C=C(C)C=CN12 (stereo unspecified) | > 102 | 45.7 |  |
| O=C(CCc1cc(O)cc(O)c1)NCCc1cc(OCc2ccccc2)cc(OCc2ccccc2)c1 |  |  | inactive |
| COC(=O)Nc1cn2nc(C)sc2n1 | > 200 | > 200 |  |
| CCOC(=O)/C(=C\c1ccc(N(C)C)cc1)[Se]c1ccccc1 | > 69.2 | > 69.2 |  |
| COc1ccc(/C=C/C(=O)c2c(-c3ccccc3)nn(C)c(=O)c2N2CC2C)cc1 (stereo unspecified) | > 64.6 | 22.4 |  |
| CCOc1ccc(Nc2nc(N)nc(N)c2N=O)cc1 | > 151 | 15.8 |  |
| CC1=C[C@H]2O[C@@H]3C[C@H]4OC(=O)/C=C\C=C\[C@H]([C@@H](C)O)OC[C@H](O)[C@@]5(C)O[C@@H]5C(=O)OC[C@@]2(C[C@H]1O)[C@]4(C)C31CO1 (stereo partly specified) | > 4.47 | 0.00575 |  |
| ClCc1ccc2ccc3ccc(CCl)nc3c2n1 | > 200 | 1.51 |  |
| O=C1CSC(=S)N1 | > 1860 | 794 |  |
| NC(N)=Nc1ccc(-c2ccc(N=C(N)N)cc2)cc1 | > 200 | 25.1 |  |
| CCCCCCOC(=O)c1[nH]c(=O)n(CCCCCC)c(=O)c1NC(=O)CNc1ccc2c(=O)c3ccccc3[nH]c2c1 | > 200 | 1 |  |

| Structure (SMILES) | EC50 [µM] | IC50 [µM] | outcome |
| --- | --- | --- | --- |
| CC1(C)C(=O)N(O)C(C)(C)N1N=O | > 200 | > 200 |  |
| O=[N+]([O-])c1c(F)c(F)c2c(c1F)N(CCCCCl)c1ccccc1S2 | > 200 | 7.94 |  |
| CCOC(=O)C[P+](c1ccc(OC)cc1)(c1ccc(OC)cc1)c1ccc(OC)cc1 | > 200 | 33.1 |  |
| COc1cc(-c2cc(=O)c3c(O)cc(C)cc3o2)cc(OC)c1OC | > 200 | > 200 |  |
| NC(CSSCC(N)C(=O)NC(Cc1ccc(O)cc1)C(=O)O)C(=O)NC(Cc1ccc(O)cc1)C(=O)O (stereo not drawn) (I: H-Cys-Tyr-OH / II: H-Cys-Tyr-OH; disulfide I:1-II:1; configuration not given here) | > 200 | > 200 |  |
| COc1ccc(/C(C)=N/NC(=S)N(C)C)c(O)c1 | > 200 | 4.79 |  |
| O=C(Nn1c(-c2ccccc2)nc2ccccc2c1=O)c1cccc([N+](=O)[O-])c1 | > 200 | 166 |  |
| CCOC(=O)/C(=C/c1ccc(OC)cc1)P(=O)(OCC)OCC | > 380 | 20.4 |  |
| CCOC1SC(SC)=NN1C(=O)C(OC(C)=O)C(OC(C)=O)C(OC(C)=O)C(OC(C)=O)C(=O)N1N=C(SC)SC1OCC (stereo unspecified) |  |  | inactive |
| O=C(O)/C=C/c1ccc(O)c(O)c1 | > 1380 | 66.1 |  |
| O=C(N/C(=C\c1ccccc1)c1nc2ccccc2c(=O)o1)c1ccccc1 | > 200 | > 200 |  |
| S=C1NC(=NC2CCCCC2)C2(CCN(CCc3ccccc3)CC2)N1c1ccccc1 | > 100 | 53.7 |  |
| CCCCCCCCCCCCCC/C(=C/OCC[N+](C)(C)C)OC(C)=O (tested in a mixture with another compound) | > 200 | 0.355 |  |
| CSc1nc(-c2ccccc2)c2c(n1)-c1ccccc1CC2 | > 12.3 | > 12.3 |  |
| OC1CCSc2ccccc21 (stereo unspecified) | > 200 | > 200 |  |
| COC(=O)C(CCCN=C(N)N[N+](=O)[O-])NC(=O)C(Cc1ccccc1)NC(=O)C1CCCN1C(=O)OCc1ccccc1 (stereo not drawn) (Cbz-Pro-Phe-[Arg(NO2)]-OMe; configuration not given here) | > 112 | > 112 |  |
| NC(=O)CNC(=O)[C@@H]1CC(OCCC(=O)O)CN1C(=O)C1CCCN1C(=O)OCc1ccccc1 (stereo partly specified) | > 200 | > 200 |  |
| Cc1cccc2c(O)cc(=O)oc12 |  |  | inactive |
| CCc1c(N=[N+]=[N-])c2ccccc2oc1=O |  |  | inactive |
| Cc1cc(C)nc(NS(=O)(=O)c2ccc(NC(=O)c3ccc4nc5ccccc5c(Nc5ccc(S(=O)(=O)N=C(N)N)cc5)c4c3)cc2)n1 | 72.4 | 141 |  |
| Nc1nc(N)c(C2=CCNCC2)c(=O)[nH]1 | > 200 | > 200 |  |
| COC(=O)C1Cc2cc3c(cc2C1=O)CCCC3 (stereo unspecified) | > 1000 | 66.1 |  |

| Structure (SMILES) | EC50 [µM] | IC50 [µM] | outcome |
| --- | --- | --- | --- |
| CCOC(=O)N1N(c2ccccc2)C(=O)C1(c1ccccc1)c1ccccc1 | > 200 | 135 |  |
| O=c1ccc2c(-c3ccccc3S(=O)(=O)O)c3ccc(O)c(O)c3oc-2c1O | 2.4 | > 200 |  |
| O=S(=O)(O)CCC(O)S(=O)(=O)O (stereo unspecified) | > 200 | 120 |  |
| CS(=O)(=O)C(=Cc1ccccc1Cl)S(C)(=O)=O |  |  | inactive |
| COC(=O)c1ccc2c(c1)C(O)NC(=O)O2 (stereo unspecified) | > 200 | 34.7 |  |
| CO[C@@]12CC(=O)/C(=C(O)\C=C\c3ccccc3)C(=O)[C@]1(OC)Cc1ccccc1O2 | > 17.8 | 15.5 |  |
| c1ccc(C2=Nc3ccccc3C(c3ccccc3)=Nc3ccccc32)cc1 | > 72.4 | > 72.4 |  |
| COc1ccc(NC2Oc3cc4c(cc3C(c3cccc(OC)c3OC)C2C)OCO4)cc1 (stereo unspecified) | > 200 | 1.95 |  |
| CCOc1cccc2ccc[n+](CC)c12 | > 251 | 25.1 |  |
| CCOC(=O)C(=CNC(=S)Nc1c(CC)cccc1CC)C(=O)OCC | > 200 | > 200 |  |
| COc1c(C)c(C/C=C(\C)CC/C=C(\C)CC/C=C(\C)CCC=C(C)C)c(OC)c(OC)c1OC | > 200 | > 200 |  |
| COc1ccc(N=C2C(=Nc3ccc(OC)cc3)N(c3ccccc3[N+](=O)[O-])C(=S)N2c2ccc(OC)cc2)cc1 | > 200 | 47.9 |  |
| Cn1cc(NC(=O)c2cc(N)nn2C)cc1C(=O)Nc1ccc2cc(S(=O)(=O)O)cc(S(=O)(=O)O)c2c1 | > 200 | > 200 |  |
| Cc1ccc(S(=O)(=O)OC2C(O)C(O)OC2C(c2cc(O)c3c(c2O)C(=O)c2ccccc2C3=O)c2cc(O)c3c(c2O)C(=O)c2ccccc2C3=O)cc1 (stereo unspecified) | > 200 | 14.5 |  |
| Fc1ccc(C2SCc3nc4ccccc4n32)cc1 (stereo unspecified) |  |  | inactive |
| C1CN2N3CCCC23C1 (stereo unspecified) | > 2000 | > 2000 |  |
| O=C(/C=C(\S/C=C(/c1ccccc1)N1CCn2c(C(=O)c3ccccc3)c(C(=O)c3ccccc3)c(C(=O)c3ccccc3)c21)C(=O)c1ccccc1)c1ccccc1 | > 200 | 37.2 |  |
| COC1[C@H](NC(=O)OC(C)(C)C)C(=O)N1Cc1ccccc1 (stereo partly specified) |  |  | inactive |
| CCc1n[nH]c(=O)n1-c1ccc2ccccc2c1 | > 100 | > 100 |  |
